Source: patent publication US8575156B2, “Cyclic inhibitors of 11β-hydroxysteroid dehydrogenase 1” (Vitae Pharmaceuticals, Inc., priority 2007, dated 2013)
Read-outs that look alike come from different tables or passages of the source.

Experiments:
11β-HSD1 [1] = target: T1, 11β-HSD1 (Homo sapiens, UniProt P28845); details: for Average % inhibition at 100 nM: 0.1 µM; for IC50: read-out: IC50 Range; for Average % inhibition at 111.1 nM: 111.1 nM compound, 0.1111 µM
11β-HSD1 [2] = target: T1, 11β-HSD1; experiment: biochemical; details: for IC50: IC50 Range
[3] = Biological Test Example 1, microsomes from CHO cells overexpressing human 11β-HSD1
[4] = Biological Test Example 1, 100 nM compound
[5] = read-out: Average % inhibition at 100 nM, Biological Test Example 1, 100 nM

T1 sequence (P28845 whole entry): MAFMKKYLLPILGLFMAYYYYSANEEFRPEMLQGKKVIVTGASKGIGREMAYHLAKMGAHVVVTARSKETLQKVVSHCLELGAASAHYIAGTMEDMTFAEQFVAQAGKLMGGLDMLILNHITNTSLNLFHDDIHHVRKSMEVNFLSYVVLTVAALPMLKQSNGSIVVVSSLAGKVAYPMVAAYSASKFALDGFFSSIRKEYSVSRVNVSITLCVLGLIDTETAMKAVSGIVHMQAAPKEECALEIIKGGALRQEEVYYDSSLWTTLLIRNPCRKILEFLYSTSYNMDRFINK

| Compound | IC50 (11β-HSD1 [1]; [3]) [nM] | Average % inhibition at 100 nM (11β-HSD1 [1]; [4]) [%] | further results |
| --- | --- | --- | --- |
| 3-((S)-1-(2′,4′-difluorobiphenyl-4-yl)ethyl)-6-(2-hydroxyethyl)-6-isopropyl-1,3-oxazinan-2-one [EXAMPLE 207 Isomer 1] |  |  | Average % inhibition at 100 nM (11β-HSD1 [1]): 89.9%; IC50 (11β-HSD1 [1]): < 100 nM |
| 3-((S)-1-(2′,4′-difluorobiphenyl-4-yl)ethyl)-6-(2-hydroxyethyl)-6-isopropyl-1,3-oxazinan-2-one [EXAMPLE 207 Isomer 2] |  |  | Average % inhibition at 100 nM (11β-HSD1 [1]): 89.3%; IC50 (11β-HSD1 [1]): < 100 nM |
| C[C@@H](c1ccccc1)N1CCC(C)(c2ccccc2)OC1=O (single isomer, unassigned) [EXAMPLE 82 Isomer 2] | < 100 |  | Average % inhibition at 111.1 nM (11β-HSD1 [1]; Biological Test Example 1): 89.2% |
| C[C@H](c1ccccc1)N1CCC(C)(c2ccccc2)OC1=O (single isomer, unassigned) [EXAMPLE 83 Isomer 2] | 100 to 1000 |  | Average % inhibition at 111.1 nM (11β-HSD1 [1]; Biological Test Example 1): 45.8% |
| C=CC1(c2ccc(F)cc2)CCN([C@@H](C)c2ccccc2)C(=O)O1 (single isomer, unassigned) [EXAMPLE 113 Isomer 2] | < 100 |  | Average % inhibition at 111.1 nM (11β-HSD1 [1]; Biological Test Example 1): 82.6% |
| CC(O)C[C@]1(c2ccc(F)cc2)CCN([C@@H](C)c2ccc(-c3ccc(F)cc3F)cc2)C(=O)O1 (single isomer, unassigned) [EXAMPLE 137 Isomer 2] | < 100 |  |  |
| CC(O)C[C@@]1(c2cccs2)CCN([C@@H](C)c2ccc(-c3ccc(F)cc3)cc2)C(=O)O1 (single isomer, unassigned) [EXAMPLE 167 Isomer 2] | < 100 |  | Average % inhibition at 111.1 nM (11β-HSD1 [1]; Biological Test Example 1): 77.2% |
| C[C@@H](c1ccc(-c2ccc(F)cc2)cc1)N1CC[C@](CC(O)CO)(c2ccccc2)OC1=O (single isomer, unassigned) [EXAMPLE 168 Isomer 2] | < 100 | 95.6 |  |
| C[C@@H](c1ccc(-c2ccc(F)cc2F)cc1)N1CCC(CCCO)(c2cccs2)OC1=O (single isomer, unassigned) [EXAMPLE 171 Isomer 2] | < 100 | 68.6 |  |
| C[C@@H](c1ccc(-c2ccc(F)cc2F)cc1)N1CC[C@](CC(O)CO)(c2ccccc2)OC1=O (single isomer, unassigned) [EXAMPLE 173 Isomer 2] | < 100 | 94.5 |  |
| CC(C)C1(CCCO)CCN([C@@H](C)c2ccc(Cl)cc2)C(=O)O1 (single isomer, unassigned) [EXAMPLE 187 Isomer 2] | < 100 |  | Average % inhibition at 100 nM (11β-HSD1 [1]): 46.4% |
| C=CCC1(c2ccc(F)cc2)CCN([C@@H](C)c2ccc(C)cc2)C(=O)O1 (single isomer, unassigned) [EXAMPLE 189 Isomer 2] | < 100 | 90.1 |  |
| C=CCC1(c2ccc(F)cc2)CCN([C@@H](C)c2ccc(OC)cc2)C(=O)O1 (single isomer, unassigned) [EXAMPLE 193 Isomer 2] | < 100 |  |  |
| C=CCC1(c2ccc(F)cc2)CCN([C@@H](C)c2ccc(Cl)cc2)C(=O)O1 (single isomer, unassigned) [EXAMPLE 196 Isomer 2] | < 100 | 98.9 |  |
| C[C@@H](C1CCCCC1)N1CC[C@](CC(O)CO)(c2ccc(F)cc2)OC1=O (single isomer, unassigned) [EXAMPLE 197 Isomer 2] | < 100 | 82.1 |  |
| CC(C)C1(CCCO)CCN([C@@H](C)c2ccc(Br)cc2)C(=O)O1 (single isomer, unassigned) [EXAMPLE 200 Isomer 2] | < 100 |  |  |
| CC(O)C[C@]1(c2ccc(F)cc2)CCN([C@@H](C)c2ccc(Cl)cc2)C(=O)O1 (single isomer, unassigned) [EXAMPLE 203 Isomer 2] | < 100 | 93.8 |  |
| COc1ccc([C@H](C)N2CC[C@](CC(O)CO)(c3ccc(F)cc3)OC2=O)cc1 (single isomer, unassigned) [EXAMPLE 206 Isomer 2] | < 100 | 85.9 |  |
| COC(=O)NC(C)(C)C[C@]1(c2ccc(F)cc2)CCN([C@@H](C)c2ccc(Br)cc2)C(=O)O1 [EXAMPLE 606, methyl 1-((S)-3-((S)-1-(4-bromophenyl)ethyl)-6-(4-fluorophenyl)-2-oxo-1,3-oxazinan-6-yl)-2-methylpropan-2-ylcarbamate] |  |  | IC50 (11β-HSD1 [2]; [3]): < 100 nM; inhibition at 0.1 µM (11β-HSD1 [2]; [5]): 96.2% |
| C[C@@H](c1ccc(Br)cc1)N1CC[C@](CC(C)(C)CNS(C)(=O)=O)(c2ccc(F)cc2)OC1=O [EXAMPLE 608, N-(3-((R)-3-((S)-1-(4-bromophenyl)ethyl)-6-(4-fluorophenyl)-2-oxo-1,3-oxazinan-6-yl)-2,2-dimethylpropyl)methanesulfonamide] |  |  | IC50 (11β-HSD1 [2]; [3]): < 100 nM; inhibition at 0.1 µM (11β-HSD1 [2]; [5]): 84.7% |
| CCOC(=O)NCC[C@]1(c2ccc(F)cc2)CCN([C@@H](C)c2ccc(Br)cc2)C(=O)O1 [EXAMPLE 620, ethyl 2-((R)-3-((S)-1-(4-bromophenyl)ethyl)-6-(4-fluorophenyl)-2-oxo-1,3-oxazinan-6-yl)ethylcarbamate] |  |  | IC50 (11β-HSD1 [2]; [3]): < 100 nM; inhibition at 0.1 µM (11β-HSD1 [2]; [5]): 68.7% |
| C[C@@H](c1ccc(Br)cc1)N1CC[C@](CC(C)(C)N)(c2ccc(F)cc2)OC1=O [EXAMPLE 621, (S)-6-(2-amino-2-methylpropyl)-3-((S)-1-(4-bromophenyl)ethyl)-6-(4-fluorophenyl)-1,3-oxazinan-2-one] |  |  | IC50 (11β-HSD1 [2]; [3]): < 100 nM; inhibition at 0.1 µM (11β-HSD1 [2]; [5]): 78.3% |
| CC(=O)NC(C)(C)C[C@]1(c2ccc(F)cc2)CCN([C@@H](C)c2ccc(Br)cc2)C(=O)O1 [EXAMPLE 626, N-(1-((S)-3-((S)-1-(4-bromophenyl)ethyl)-6-(4-fluorophenyl)-2-oxo-1,3-oxazinan-6-yl)-2-methylpropan-2-yl)acetamide] |  |  | IC50 (11β-HSD1 [2]; [3]): < 100 nM; inhibition at 0.1 µM (11β-HSD1 [2]; [5]): 94.8% |
| C[C@@H](c1ccc(Br)cc1)N1CC[C@](CC(C)(C)NC(=O)C(C)(C)C)(c2ccccc2)OC1=O [EXAMPLE 693, N-(1-((S)-3-((S)-1-(4-bromophenyl)ethyl)-2-oxo-6-phenyl-1,3-oxazinan-6-yl)-2-methylpropan-2-yl)pivalamide] |  |  | IC50 (11β-HSD1 [2]; microsomes from CHO cells overexpressing human 11β-HSD1): > 100 nM; inhibition at 0.1 µM (11β-HSD1 [2]; read-out: Average % inhibition at 100 nM, 100 nM compound, microsomes from CHO cells overexpressing human 11β-HSD1): 17.6% |

Now from value to compound, other results behind:

| IC50 (11β-HSD1 [1]; [3]) [nM] | Average % inhibition at 100 nM (11β-HSD1 [1]; [4]) [%] | Compound | further results |
| --- | --- | --- | --- |
| < 100 | 82.6 | CC(C)C1(CCCO)CCN([C@@H](C)c2ccc(-c3ccc(F)cc3F)cc2)C(=O)O1 (single isomer, unassigned) [EXAMPLE 212 Isomer 2] |  |
| < 100 | 95.6 | CC(O)C[C@]1(c2ccccc2)CCN([C@@H](C)c2ccc(-c3ccc(F)cc3)cc2)C(=O)O1 (single isomer, unassigned) [EXAMPLE 224 Isomer 2] |  |
| < 100 |  | C[C@@H](c1ccc(Br)cc1)N1CCC(CCCO)(c2ccc(F)cc2)OC1=O (single isomer, unassigned) [EXAMPLE 227 Isomer 2] |  |
| < 100 | 64.1 | C[C@@H](c1ccc(-c2ccc(F)cc2F)cc1)N1CCC(CCO)(c2cccs2)OC1=O (single isomer, unassigned) [EXAMPLE 233 Isomer 2] |  |
| < 100 | 89.5 | CC[C@@H](c1ccc(Br)cc1)N1CC[C@](CC(O)CO)(c2ccccc2)OC1=O (single isomer, unassigned) [EXAMPLE 239 Isomer 2] |  |
| < 100 | 89.3 | CC[C@@H](c1ccc(Br)cc1)N1CC[C@](CC(O)CO)(c2ccc(F)cc2)OC1=O (single isomer, unassigned) [EXAMPLE 255 Isomer 2] |  |
